Columns and labels:
[1] = tested on: croton oil-induced granuloma; assay: Test for croton oil-induced granuloma (air pouch exudate and thymus weight); assay type: in vivo, rat; settings: male Wistar rats, 7 days, vs control group
Excerpt: Using the croton oil granuloma test, which is a test method with which the local anti-inflammatory action and the systemic side effect can be evaluated at the same time, the pharmacological effect and the systemic side effect of the compounds of the present invention were studied.
Five individuals/group of male Wistar rats having body weights of 180 to 225 g were used, and hair on the back of these rats was shaved with a clipper under ether anesthesia, followed by preparing an air pouch by subcutaneous injection of 20 mL of air at the back. On the next day, 1 mL of cottonseed oil containing 1% croton oil was administered to the pouch. Each test drug was suspended in the croton oil-containing cottonseed oil before administration. Seven days later, blood was collected from abdominal aorta under ether anesthesia, and exudate in the pouch was collected and its fluid amount was measured. Further, the thymus was removed, and its weight was measured. The weight of the exudate and the weight of the thymus are shown in Table 2 as the suppression rate and the atrophy rate (%) with respect to those of the control group.

[2] = tested on: croton oil-induced ear edema; assay: Test for croton oil-induced ear edema; assay type: in vivo; settings: rat right auricle; for Edema suppression rate of 6 hours after administration of inflammatory agent (%): 6 hours after croton oil; for Edema suppression rate of 24 hours after administration of inflammatory agent (%): 24 hours after croton oil
Protocol: Croton oil ear edema test, which is a representative model for dermatitis, was used to study the pharmacological effect of compounds of the present invention.
Five individuals/group of rats of 5 weeks old (body weight, 128 g to 169 g) were used. One day before the test, the thickness of the right ear was measured under ether anesthesia using a dial thickness gauge, to obtain the Pre value. On the day of the test, 20 mg each of the ointments to be tested, which had been prepared to have various concentrations in white vaseline, was applied to the right auricle (both sides) of each rat, and a collar was then placed around the neck of the rat to prevent contacting/scratching and removal of the drug. Two hours later, the ointment was wiped off under ether anesthesia using absorbent cotton, and 0.1 mL of 5% croton oil (croton oil:ether:pyridine:distilled water=1:14:4:1) solution was applied dropwise to the both sides of the auricle while drying the solution with a drier (air blow), to induce ear edema. Six and 24 hours after the induction of the edema, the thickness of the right auricle was measured under ether anesthesia, and the edema rate and the edema suppression rate were calculated according to the equations below, which suppression rate is shown in Table 1.

Compound	Rate of exudates suppression (pharmacological effects) ([1]; dose 0.001 mg/rat into pouch)	Rate of thymus atrophy (systemic side effects) ([1]; dose 0.001 mg/rat into pouch)	Rate of exudates suppression (pharmacological effects) ([1]; dose 0.01 mg/rat into pouch)	Rate of thymus atrophy (systemic side effects) ([1]; dose 0.01 mg/rat into pouch)	Rate of exudates suppression (pharmacological effects) ([1]; dose 0.1 mg/rat into pouch)	Rate of thymus atrophy (systemic side effects) ([1]; dose 0.1 mg/rat into pouch)	Rate of exudates suppression (pharmacological effects) ([1]; dose 1 mg/rat into pouch)	Rate of thymus atrophy (systemic side effects) ([1]; dose 1 mg/rat into pouch)	Edema suppression rate of 6 hours after administration of inflammatory agent (%) ([2]; ointment concentration 0.001%)	Edema suppression rate of 24 hours after administration of inflammatory agent (%) ([2]; ointment concentration 0.001%)	Edema suppression rate of 6 hours after administration of inflammatory agent (%) ([2]; ointment concentration 0.01%)	Edema suppression rate of 24 hours after administration of inflammatory agent (%) ([2]; ointment concentration 0.01%)	Edema suppression rate of 6 hours after administration of inflammatory agent (%) ([2]; ointment concentration 0.1%)	Edema suppression rate of 24 hours after administration of inflammatory agent (%) ([2]; ointment concentration 0.1%)
CCCC1O[C@@H]2C[C@H]3[C@@H]4CCC5=CC(=O)C=C[C@]5(C)[C@H]4[C@@H](O)C[C@]3(C)[C@]2(C(=O)CO)O1 (stereo partly drawn) [Budesonide(R), reference compound]	7.6%	15.6%	44.9%	25.8%	88.4%	74.5%	93.0%	90.2%	–	–	–	–	–	–
CCCC1O[C@@H]2C[C@H]3[C@@H]4CCC5=CC(=O)C=C[C@]5(C)[C@H]4[C@@H](O)C[C@]3(C)[C@]2(C(=O)CO)O1 (stereo partly drawn) [Budesonide, budesonide, reference compound]	10.8%	7.3%	66.9%	17.7%	91.6%	74.5%	94.3%	87.5%	11.8%	7.6%	32.3%	33.5%	48.1%	45.1%
CC(C)C(=O)OCC(=O)[C@@]12O[C@H](C3CCCCC3)O[C@@H]1C[C@H]1[C@@H]3CCC4=CC(=O)C=C[C@]4(C)[C@H]3[C@@H](O)C[C@@]12C [Ciclesonide, ciclesonide, reference compound]	62.8%	6.0%	93.5%	13.0%	93.0%	23.6%	92.6%	84.4%	9.1%	9.4%	30.3%	24.5%	49.4%	43.5%
CC12C=CC(=O)C=C1CCC1C2C(O)CC2(C)C1CC1OC(C3CCCCC3)OC12C(=O)COC1OC(CO)C(O)C(O)C1O (stereo not drawn) [Compound 2]	–	–	–	–	–	–	–	–	13.5%	12.5%	36.8%	38.2%	50.2%	49.5%
CCC(=O)OCC1OC(OCC(=O)C23OC(C4CCCCC4)OC2CC2C4CCC5=CC(=O)C=CC5(C)C4C(O)CC23C)C(OC(=O)CC)C(OC(=O)CC)C1OC(=O)CC (stereo not drawn) [Compound 4]	17.9%	0.0%	44.5%	0.0%	87.0%	0.0%	94.5%	0.0%	30.8%	33.8%	46.3%	70.2%	54.4%	71.7%
CCCC(=O)OCC1OC(OCC(=O)C23OC(C4CCCCC4)OC2CC2C4CCC5=CC(=O)C=CC5(C)C4C(O)CC23C)C(OC(=O)CCC)C(OC(=O)CCC)C1OC(=O)CCC (stereo not drawn) [Compound 5]	17.8%	0.0%	14.3%	0.0%	40.4%	0.0%	91.4%	0.0%	21.7%	11.1%	61.5%	48.1%	57.6%	52.3%
CC(C)C(=O)OCC1OC(OCC(=O)C23OC(C4CCCCC4)OC2CC2C4CCC5=CC(=O)C=CC5(C)C4C(O)CC23C)C(OC(=O)C(C)C)C(OC(=O)C(C)C)C1OC(=O)C(C)C (stereo not drawn) [Compound 6]	0.0%	0.0%	12.0%	0.0%	31.2%	0.0%	71.9%	0.0%	27.5%	30.5%	53.1%	45.8%	53.1%	55.1%
CC12C=CC(=O)C=C1CCC1C2C(O)CC2(C)C1CC1OC(C3CCCCC3)OC12C(=O)COC1OC(COC=O)C(OC=O)C(OC=O)C1OC=O (stereo not drawn) [Compound 7]	8.7%	2.9%	52.4%	0.0%	59.4%	5.8%	76.8%	19.5%	42.3%	52.0%	49.7%	53.4%	48.5%	53.5%
CC12C=CC(=O)C=C1CCC1C2C(O)CC2(C)C1CC1OC(C3CCCCC3)OC12C(=O)COC1OC(COC(=O)c2ccco2)C(OC(=O)c2ccco2)C(OC(=O)c2ccco2)C1OC(=O)c1ccco1 (stereo not drawn) [Compound 8]	19.1%	0.0%	42.1%	0.0%	78.0%	0.0%	95.0%	0.5%	24.2%	25.9%	36.0%	40.1%	33.4%	49.6%
C[C@]12C=CC(=O)C=C1CC[C@@H]1[C@@H]2[C@@H](O)C[C@@]2(C)[C@H]1C[C@H]1O[C@@H](C3CCCCC3)O[C@]12C(=O)CO [desCIC, des-ciclesonide, reference compound]	62.0%	0.0%	74.1%	11.7%	92.7%	22.4%	94.1%	86.4%	–	–	–	–	–	–

From patent publication US8765696B2, “Steroid compound” (Mikasa Seiyaku Co., Ltd., priority 2009, dated 2014)
